Source: patent US20110288082A1, “METHODS AND COMPOSITIONS FOR INHIBITION OF THE TRANSITIONAL ENDOPLASMIC RETICULUM ATPASE” (priority 2010, published 2011)
Where “and” joins values, the source holds several entries; their conditions need not be identical. Identical values can stand only once. Like-named read-outs stand apart in the source and are kept apart here.

Columns and labels:
[1] = tested on: p97-dependent Ub^G76V-GFP degradation in HeLa cells; assay: Ub^G76V-GFP degradation (turn-over) assay; assay type: cell-based, human
Procedure: Ub^G76V-GFP Degradation Assay
Two GFP images with 100 ms exposure time per well were acquired and the average GFP intensity per area of a HeLa cell was determined by using MetaXpress software. Mean GFP intensity of 300-500 cells was calculated using Excel. Normalized GFP intensity was calculated using the following formula: (Test compound−Background)/(Basal GFP intensity—Background). Where: Test compound is defined as Mean GFP intensity of Ub^G76V-GFP-expressing cells treated with the test compound. Background is defined as background GFP intensity of HeLa cells. Basal GFP intensity is defined as mean GFP intensity of Ub^G76V-GFP-expressing cells treated with DMSO. […] The percent of remaining k for each compound is calculated using the following formula: (Test compound/DMSO control)*100. Where: Test_compound is defined as k determined from wells containing test compound, DMSO control is defined as k determined from wells containing DMSO.

[2] = target: p97 (Homo sapiens, UniProt P55072); assay: p97 ATPase assay (Kinase Glo Plus; biomol green for compounds that interfere with luciferase); assay type: biochemical
Chain of p97 (P55072 2-806 limits assumed): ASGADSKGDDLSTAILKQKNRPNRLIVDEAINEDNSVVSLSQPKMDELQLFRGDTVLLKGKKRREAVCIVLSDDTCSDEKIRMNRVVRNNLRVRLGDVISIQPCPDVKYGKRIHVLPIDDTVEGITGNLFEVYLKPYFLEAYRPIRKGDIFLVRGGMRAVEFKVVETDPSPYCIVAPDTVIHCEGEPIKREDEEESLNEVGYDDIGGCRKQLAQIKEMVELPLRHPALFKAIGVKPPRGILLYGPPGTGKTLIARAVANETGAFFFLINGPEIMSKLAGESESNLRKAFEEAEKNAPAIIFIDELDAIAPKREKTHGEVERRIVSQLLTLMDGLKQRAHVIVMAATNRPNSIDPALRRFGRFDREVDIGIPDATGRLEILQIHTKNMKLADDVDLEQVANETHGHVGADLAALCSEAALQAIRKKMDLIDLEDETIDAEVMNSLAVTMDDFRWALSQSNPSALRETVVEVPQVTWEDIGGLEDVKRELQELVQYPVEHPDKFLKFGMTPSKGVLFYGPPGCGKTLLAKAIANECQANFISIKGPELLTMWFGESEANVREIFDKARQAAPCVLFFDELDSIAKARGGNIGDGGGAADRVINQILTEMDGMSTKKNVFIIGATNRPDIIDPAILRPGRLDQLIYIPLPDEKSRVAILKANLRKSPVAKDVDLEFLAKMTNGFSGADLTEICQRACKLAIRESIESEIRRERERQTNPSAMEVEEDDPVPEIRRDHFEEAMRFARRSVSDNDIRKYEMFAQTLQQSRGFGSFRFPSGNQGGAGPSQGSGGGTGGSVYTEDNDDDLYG
Procedure: Assay Buffer (20 μL of 2.5× concentration, where 1×=50 mM Tris pH 7.4, 20 mM MgCl2, 1 mM EDTA, 0.5 mM TCEP) was dispensed into each well of a 96 well plate. Purified p97 (25 μL of 50 μM) was diluted in 975 μL, of 1× Assay Buffer and 10 μL was dispensed in each well. Test compound (10 μL) or 5% DMSO (10 μL) was then added to each well and the plate was incubated at room temperature for 10 min. The ATPase assay was carried out by adding to each well 10 μL of 500 μM ATP (pH 7.5), incubating at room temperature for 60 min, and then adding 50 μL Kinase Glo Plus reagent (Promega) followed by a final 10 min incubation at room temperature in the dark. Luminescence was read on an Analyst AD (Molecular Devices). Compounds were assayed at a range of concentrations (0, 0.048, 0.24, 1.2, 6, 30 μM) in triplicate. The percent of remaining activity for each reaction was calculated using the following mathematical expression: ((Test Compound-High Control)/(Low Control-High Control))*100. Test_Compound is defined as wells containing test compound, Low_Control is defined as wells containing DMSO, High_Control is defined as wells containing no p97 protein. […] The result was expressed as mean +/− standard error. For assays with Myriad 12 and 19, 100 μL of biomol green reagent (Enzo Life Sciences) was added to each well instead of kinase Glo Plus (Promega) and absorbance at 630 nm was measured. This was done because these compounds interfered with luciferase activity. […]

[3] = Homo sapiens, HeLa, read-out: IC50 (μM) Ub^G76V-GFP turn over, Ub^G76V-GFP-expressing HeLa cells, degradation rate constant k from 90 to 180 min, mean +/- standard error
[4] = purified p97, ATP, 60 min room temperature, mean +/- standard error
[5] = Homo sapiens, HeLa, read-out: IC50 (μM) Ub^G76V-GFP turn over, p97-dependent Ub^G76V-GFP degradation turn-over assay

| SMILES | IC50 [1, 3] [µM] | IC50 [2, 4] | IC50 ([1]; read-out: IC50 (μM) Ub^G76V-GFP turn over, Ub^G76V-GFP-expressing HeLa cells, degradation rate constant k from 90 to 180 min, mean +/- standard error) [µM] | IC50 [1, 5] [µM] | IC50 ([2]; p97 ATPase assay) [µM] |
| --- | --- | --- | --- | --- | --- |
| Cc1ccc(Nc2nc(NCc3ccccc3)c3ccccc3n2)cc1 [II-2] | 6.3 ± 1.4 | 2.2 ± 0.4 µM |  |  |  |
| Clc1ccc(Nc2nc(NCc3ccccc3)c3ccccc3n2)cc1 [II-3] | 5.9 ± 1.2 | 5.4 ± 2 µM |  |  |  |
| Fc1ccc(Nc2nc(NCc3ccccc3)c3ccccc3n2)cc1 [II-4] | 9.4 ± 1 | 3.8 ± 1.2 µM |  |  |  |
| Brc1ccc(Nc2nc(NCc3ccccc3)c3ccccc3n2)cc1 [II-5] | 6 ± 0.8 | 1.8 ± 0.4 µM |  |  |  |
| COc1ccc(Nc2nc(NCc3ccccc3)c3ccccc3n2)cc1 [II-6] | 4.5 ± 1.1 | 3.8 µM and 3.5 µM | 4.8 ± 0.7 |  |  |
| Cc1ccccc1Nc1nc(NCc2ccccc2)c2ccccc2n1 [II-7] | 10 ± 2 | 3.4 ± 1.5 µM |  |  |  |
| Clc1ccccc1Nc1nc(NCc2ccccc2)c2ccccc2n1 [II-8] |  |  |  | 13 ± 2 | 69 ± 25 |
| Fc1ccccc1Nc1nc(NCc2ccccc2)c2ccccc2n1 [II-9] | 10 ± 2 | 0.85 ± 0.17 µM |  |  |  |
| Brc1ccccc1Nc1nc(NCc2ccccc2)c2ccccc2n1 [II-10] |  |  |  | 13 ± 2 | 64 ± 24 |
| COc1ccccc1Nc1nc(NCc2ccccc2)c2ccccc2n1 [II-11] | 11 ± 3 | 2.2 ± 0.9 µM |  |  |  |
| Cc1cccc(Nc2nc(NCc3ccccc3)c3ccccc3n2)c1 [II-12] | 3 ± 0.7 | 1.7 ± 0.5 µM |  |  |  |
| Brc1cccc(Nc2nc(NCc3ccccc3)c3ccccc3n2)c1 [II-15] | 4.3 ± 0.8 | 2.5 ± 0.5 µM |  |  |  |
| COc1cccc(Nc2nc(NCc3ccccc3)c3ccccc3n2)c1 [II-16] | 4.3 ± 0.7 | 2.5 ± 0.2 µM |  |  |  |
| Clc1ccc(Nc2nc(NCc3ccccc3)c3ccccc3n2)cc1Cl [II-17] | 12 ± 2 | 8.1 ± 2.6 µM |  |  |  |
| Fc1ccc(Cl)cc1Nc1nc(NCc2ccccc2)c2ccccc2n1 [II-18] | 13 ± 2 | 13 ± 3 µM |  |  |  |
| Clc1cc(Cl)cc(Nc2nc(NCc3ccccc3)c3ccccc3n2)c1 [II-19] | 13 ± 1 | 8.2 ± 0.3 µM |  |  |  |
| FC(F)(F)c1cccc(Nc2nc(NCc3ccccc3)c3ccccc3n2)c1 [II-20] |  |  |  | 21 ± 1 | 50 ± 16 |
| Ic1cccc(Nc2nc(NCc3ccccc3)c3ccccc3n2)c1 [II-21] | 36 ± 4 | 5.2 ± 1.9 µM |  |  |  |
| O=[N+]([O-])c1cccc(Nc2nc(NCc3ccccc3)c3ccccc3n2)c1 [II-22] | 19 ± 2 | 5.2 ± 0.5 µM |  |  |  |
| Cc1ccc(CNc2nc(Nc3cccc(Cl)c3)nc3ccccc23)cc1 [III-1] | 12 ± 2 | 1.4 ± 0.3 µM |  |  |  |
| Clc1ccc(CNc2nc(Nc3cccc(Cl)c3)nc3ccccc23)cc1 [III-2] | 7.6 ± 2.4 | 2.8 ± 0.9 µM |  |  |  |
| Fc1ccc(CNc2nc(Nc3cccc(Cl)c3)nc3ccccc23)cc1 [III-3] | 5.7 ± 1.3 | 1.5 ± 0.3 µM |  |  |  |
| Clc1cccc(Nc2nc(NCc3ccc(Br)cc3)c3ccccc3n2)c1 [III-4] | 10 ± 3 | 7.4 ± 2 µM |  |  |  |
| COc1ccc(CNc2nc(Nc3cccc(Cl)c3)nc3ccccc23)cc1 [III-5] | 11 ± 4 | 2.3 ± 0.6 µM |  |  |  |
| Cc1ccccc1CNc1nc(Nc2cccc(Cl)c2)nc2ccccc12 [III-6] | 11 ± 3 | 4.2 ± 1.1 µM |  |  |  |
| Clc1cccc(Nc2nc(NCc3ccccc3Cl)c3ccccc3n2)c1 [III-7] | 18 ± 5 | 4.7 ± 1.4 µM |  |  |  |
| Fc1ccccc1CNc1nc(Nc2cccc(Cl)c2)nc2ccccc12 [III-8] | 7.8 ± 2.1 | 1.8 ± 0.5 µM |  |  |  |

| SMILES | IC50 [1, 3] [µM] | IC50 [2, 4] | IC50 ([1]; read-out: IC50 (μM) Ub^G76V-GFP turn over, Ub^G76V-GFP-expressing HeLa cells, degradation rate constant k from 90 to 180 min, mean +/- standard error) [µM] | IC50 [1, 5] [µM] | IC50 ([2]; p97 ATPase assay) [µM] |
| --- | --- | --- | --- | --- | --- |
| Clc1cccc(Nc2nc(NCc3ccccc3Br)c3ccccc3n2)c1 [III-9] | 12 ± 5 | 4 ± 1.7 µM |  |  |  |
| COc1ccccc1CNc1nc(Nc2cccc(Cl)c2)nc2ccccc12 [III-10] | 11 ± 2 | 1.6 ± 0.4 µM |  |  |  |
| Cc1cccc(CNc2nc(Nc3cccc(Cl)c3)nc3ccccc23)c1 [III-11] | 9.7 ± 2.7 | 2.3 ± 0.6 µM |  |  |  |
| Clc1cccc(CNc2nc(Nc3cccc(Cl)c3)nc3ccccc23)c1 [III-12] | 15 ± 4 | 5 ± 1.2 µM |  |  |  |
| Fc1cccc(CNc2nc(Nc3cccc(Cl)c3)nc3ccccc23)c1 [III-13] | 6.3 ± 1.7 | 1.2 ± 0.2 µM |  |  |  |
| Clc1cccc(Nc2nc(NCc3cccc(Br)c3)c3ccccc3n2)c1 [III-14] | 9.9 ± 2 | 3.7 ± 0.9 µM |  |  |  |
| COc1cccc(CNc2nc(Nc3cccc(Cl)c3)nc3ccccc23)c1 [III-15] | 9.9 ± 1.6 | 1 ± 0.1 µM |  |  |  |
| Clc1ccc(CNc2nc(NCc3ccccc3)c3ccccc3n2)cc1 [IV-2] | 2.1 ± 0.4 | 3.1 ± 0.2 µM |  |  |  |
| Fc1ccc(CNc2nc(NCc3ccccc3)c3ccccc3n2)cc1 [IV-3] | 3.4 ± 0.5 | 2.6 ± 0.2 µM |  |  |  |
| Brc1ccc(CNc2nc(NCc3ccccc3)c3ccccc3n2)cc1 [IV-4] | 3.9 ± 0.3 | 4.3 ± 0.9 µM |  |  |  |
| COc1ccc(CNc2nc(NCc3ccccc3)c3ccccc3n2)cc1 [IV-5] | 1.3 ± 0.2 | 3 ± 0.5 µM |  |  |  |
| Cc1ccccc1CNc1nc(NCc2ccccc2)c2ccccc2n1 [IV-6] | 1.9 ± 0.4 | 2.7 ± 0.5 µM |  |  |  |
| Clc1ccccc1CNc1nc(NCc2ccccc2)c2ccccc2n1 [IV-7] | 2.9 ± 0.9 | 5.3 ± 1.2 µM |  |  |  |
| Fc1ccccc1CNc1nc(NCc2ccccc2)c2ccccc2n1 [IV-8] | 2.8 ± 0.4 | 2.9 ± 0.4 µM |  |  |  |
| Brc1ccccc1CNc1nc(NCc2ccccc2)c2ccccc2n1 [IV-9] | 3.8 ± 0.7 | 2 ± 0.3 µM |  |  |  |
| COc1ccccc1CNc1nc(NCc2ccccc2)c2ccccc2n1 [IV-10] | 1.9 ± 0.2 | 3.6 ± 0.8 µM |  |  |  |
| Cc1cccc(CNc2nc(NCc3ccccc3)c3ccccc3n2)c1 [IV-11] | 2.5 ± 0.5 | 2.3 ± 0.4 µM |  |  |  |
| Clc1cccc(CNc2nc(NCc3ccccc3)c3ccccc3n2)c1 [IV-12] | 2.5 ± 0.4 | 2.7 ± 0.1 µM |  |  |  |
| Clc1ccc(CNc2nc(NCc3ccccc3)c3ccccc3n2)cc1Cl [IV-17] | 1.9 ± 0.2 | 3 ± 0.5 µM |  |  |  |
| FC(F)(F)c1cc(CNc2nc(NCc3ccccc3)c3ccccc3n2)ccc1Cl [IV-18] | 2.2 ± 0.4 | 4.7 ± 1 µM |  |  |  |
| c1ccc(CNc2nc(N3CCOc4ccccc43)nc3ccsc23)cc1 [IX] | 6.4 ± 1 | 0.4 ± 0.1 µM |  |  |  |
| Brc1cccc2c(NCc3ccccc3)nc(NCc3ccccc3)nc12 [V1-9] | 30 ± 2 | 3.3 ± 0.9 µM |  |  |  |
| COc1c(Cl)cccc1Nc1nc(NCc2ccccc2)c2ccccc2n1 [V-1] | 6.3 ± 1.7 | 0.9 ± 0.2 µM |  |  |  |
| Cc1c(F)cccc1Nc1nc(NCc2ccccc2)c2ccccc2n1 [V-2] | 3.7 ± 0.8 | 0.9 ± 0.1 µM |  |  |  |
| Cc1cc(F)cc(Nc2nc(NCc3ccccc3)c3ccccc3n2)c1 [V-3] | 5.4 ± 0.8 | 0.7 ± 0.05 µM |  |  |  |
| COc1c(F)cccc1Nc1nc(NCc2ccccc2)c2ccccc2n1 [V-4] | 12 ± 3 | 1.7 ± 0.5 µM |  |  |  |
